In US20110046173A1 (priority 2009, published 2011):

How the values were obtained:
[1] = test system: acute pain, bunionectomy; assay: Efficacy (SPID48) of 3 to 2 product vs morphine vs oxycodone, bunionectomy study (Example 2); assay type: in vivo, human; conditions: for Mean SPID48 Score: 48 hr; for pain control by SPID48 (judged analgesic dose): low doses alone: morphine 6 mg, oxycodone 4 mg
[2] = test system: analgesia; conditions: mouse, in vivo; cited from earlier work

Row | SMILES | Mean SPID48 Score ([1]; 4 mg q6h) | Mean SPID48 Score ([1]; 8 mg q6h) | pain control by SPID48 (judged analgesic dose) [1] | interaction with morphine, morphine-6-β-glucuronide, codeine, and 6-acetylmorphine [2] | Mean SPID48 Score ([1]; 6 mg q6h) | Mean SPID48 Score ([1]; 12 mg q6h)
1 | COc1ccc2c3c1O[C@H]1C(=O)CC[C@@]4(O)[C@@H](C2)N(C)CC[C@]314 [Oxycodone, oxycodone] | 60 | 99 | gave pain control |  |  | 
2 | CCC(=O)C(C[C@@H](C)N(C)C)(c1ccccc1)c1ccccc1 [L-methadone] |  |  |  | exhibited synergy |  | 
3 | CN1CC[C@]23c4c5ccc(O)c4O[C@H]2[C@@H](O)C=C[C@H]3[C@H]1C5 [Morphine, morphine] |  |  | gave pain control |  | 51 | 106
